Source: patent US6737383B1, “Herbicidal oxadiazolidines” (priority 1999, dated 2004)

Columns and labels:
[1] = tested on: bedstraw; assay: Test B pre/postemergence bedstraw; format: in vivo, Galium aparine; conditions: for Bedstraw plant response rating: 10 is complete control
Summary of the method: (§1)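 Response is a visual 0-to-10 score relative to untreated plants, where 0 means no effect and 10 means complete control, taken twelve to sixteen days after application. Treatments went onto soil at planting and onto foliage of 1- to 4-leaf plants, using a surfactant-containing non-phytotoxic solvent.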

[2] = tested on: blackgrass; assay: Test B pre/postemergence blackgrass; format: in vivo, Alopecurus myosuroides
Summary of the method: as §1

[3] = tested on: surinam grass; assay: Test B pre/postemergence surinam grass; format: in vivo, Brachiaria decumbens
Summary of the method: as §1

[4] = tested on: cocklebur; assay: Test B pre/postemergence cocklebur; format: in vivo, Xanthium strumarium
Summary of the method: as §1

[5] = tested on: corn; assay: Test B pre/postemergence corn; format: in vivo, Zea mays
Summary of the method: as §1

[6] = tested on: crabgrass; assay: Test B pre/postemergence crabgrass; format: in vivo, Digitaria sanguinalis
Summary of the method: as §1

[7] = tested on: giant foxtail; assay: Test B pre/postemergence giant foxtail; format: in vivo, Setaria faberii
Summary of the method: as §1

[8] = tested on: morningglory; assay: Test B pre/postemergence morningglory; format: in vivo, Ipomoea hederacea
Summary of the method: as §1

[9] = tested on: pigweed; assay: Test B pre/postemergence pigweed; format: in vivo, Amaranthus retroflexus
Summary of the method: as §1

[10] = tested on: rape; assay: Test B pre/postemergence rape; format: in vivo, Brassica napus
Summary of the method: as §1

[11] = tested on: soybean; assay: Test B pre/postemergence soybean; format: in vivo, Glycine max
Summary of the method: as §1

[12] = tested on: sugar beet; assay: Test B pre/postemergence sugar beet; format: in vivo, Beta vulgaris
Summary of the method: as §1

[13] = tested on: velvetleaf; assay: Test B pre/postemergence velvetleaf; format: in vivo, Abutilon theophrasti
Summary of the method: as §1

[14] = tested on: wheat; assay: Test B pre/postemergence wheat; format: in vivo, Triticum aestivum
Summary of the method: as §1

[15] = tested on: wild oat; assay: Test B pre/postemergence wild oat; format: in vivo, Avena fatua
Summary of the method: as §1

[16] = tested on: purple nutsedge; assay: Test B pre/postemergence purple nutsedge; format: in vivo, Cyperus rotundus
Summary of the method: as §1

[17] = Preemergence, Rate 62 g/ha, scale of 0 to 10 where 0 is no effect and 10 is complete control
[18] = Postemergence, Rate 62 g/ha, scale of 0 to 10, 0 is no effect, 10 is complete control
[19] = Postemergence, Rate 125 g/ha, scale 0 to 10, 0 is no effect, 10 is complete control
[20] = Postemergence, Rate 250 g/ha, scale 0 to 10
[21] = Postemergence, Rate 500 g/ha, scale 0 to 10, 0 is no effect, 10 is complete control
[22] = Preemergence, Rate 125 g/ha, scale 0 to 10, 0 is no effect, 10 is complete control
[23] = Preemergence, Rate 250 g/ha, scale 0 to 10, 0 is no effect, 10 is complete control
[24] = Preemergence, Rate 500 g/ha, scale of 0 to 10 where 0 is no effect and 10 is complete control

With CC(=O)C(C)n1c(=O)on(C(=O)N(c2ccc(F)cc2F)C(C)C)c1=O (stereo not shown) [Compound 517] the “Bedstraw plant response rating” value ([1]; Postemergence, Rate 62 g/ha, scale of 0 to 10, 0 is no effect) was 4, the “Bedstraw plant response rating” value ([1]; Postemergence, Rate 125 g/ha, scale 0 to 10, 0 is no effect) was 7 and the “Plant response rating, Bedstraw” value [1, 17] was 0. For the same molecule, the “Bedstraw plant response rating” value ([1]; Preemergence, Rate 125 g/ha, scale 0 to 10, 0 is no effect) was 0, the “Bedstraw plant response rating” value ([1]; Preemergence, Rate 250 g/ha, scale 0 to 10, 0 is no effect) was 0 and the “Bedstraw plant response rating” value ([1]; Preemergence, Rate 500 g/ha, scale 0 to 10, 0 is no effect) was 0. The “Blackgrass plant response rating” value [2, 18] was 0, the “Blackgrass plant response rating” value [2, 19] was 3 and the “Blackgrass plant response rating” value [2, 20] was 6. For the same molecule, the “Plant response rating, Blackgrass” value [2, 21] was 6, the “Plant response rating, Blackgrass” value [2, 17] was 2 and the “Blackgrass plant response rating” value [2, 22] was 2. The “Blackgrass plant response rating” value [2, 23] was 4, the “Blackgrass plant response rating” value [2, 24] was 4 and the “B. signalgrass plant response rating” value [3, 18] was 0. The “B. signalgrass plant response rating” value [3, 19] was 4, the “B. signalgrass plant response rating” value ([3]; Postemergence, Rate 250 g/ha, scale 0 to 10, 0 no effect, 10 complete control) was 6 and the “Plant response rating, B. signalgrass” value [3, 21] was 8. For the same molecule, the “Plant response rating, B. signalgrass” value [3, 17] was 0, the “B. signalgrass plant response rating” value [3, 22] was 0 and the “B. signalgrass plant response rating” value [3, 23] was 0. The “B. signalgrass plant response rating” value ([3]; Preemergence, Rate 500 g/ha, scale 0 to 10, 0 is no effect, 10 is complete control) was 0, the “Cocklebur plant response rating” value [4, 18] was 0 and the “Cocklebur plant response rating” value [4, 19] was 0. The “Cocklebur plant response rating” value [4, 20] was 0, the “Plant response rating, Cocklebur” value [4, 21] was 4 and the “Plant response rating, Cocklebur” value [4, 17] was 0. The “Cocklebur plant response rating” value [4, 22] was 0, the “Cocklebur plant response rating” value [4, 23] was 0 and the “Cocklebur plant response rating” value [4, 24] was 0. The “Corn plant response rating” value [5, 18] was 0, the “Corn plant response rating” value [5, 19] was 0 and the “Corn plant response rating” value [5, 20] was 0. For the same molecule, the “Plant response rating, Corn” value [5, 21] was 4, the “Plant response rating, Corn” value [5, 17] was 0 and the “Corn plant response rating” value [5, 22] was 0. The “Corn plant response rating” value [5, 24] was 3, the “Crabgrass plant response rating” value [6, 18] was 7 and the “Crabgrass plant response rating” value [6, 19] was 7. For the same molecule, the “Crabgrass plant response rating” value [6, 20] was 8, the “Plant response rating, Crabgrass” value [6, 21] was 9 and the “Plant response rating, Crabgrass” value [6, 17] was 4. The “Crabgrass plant response rating” value [6, 22] was 4, the “Crabgrass plant response rating” value [6, 24] was 7 and the “Giant foxtail plant response rating” value [7, 18] was 8. The “Giant foxtail plant response rating” value [7, 19] was 8, the “Plant response rating, Giant foxtail” value [7, 21] was 9 and the “Plant response rating, Giant foxtail” value [7, 17] was 2. The “Giant foxtail plant response rating” value [7, 22] was 3, the “Giant foxtail plant response rating” value [7, 24] was 10 and the “Morningglory plant response rating” value [8, 18] was 2. For the same molecule, the “Morningglory plant response rating” value [8, 19] was 2, the “Plant response rating, Morningglory” value [8, 21] was 2 and the “Plant response rating, Morningglory” value [8, 17] was 0. The “Morningglory plant response rating” value [8, 22] was 0, the “Morningglory plant response rating” value [8, 24] was 0 and the “Redroot pigweed plant response rating” value [9, 18] was 0. For the same molecule, the “Redroot pigweed plant response rating” value [9, 19] was 4, the “Plant response rating, Redroot pigweed” value [9, 21] was 7 and the “Plant response rating, Redroot pigweed” value [9, 17] was 8. For the same molecule, the “Redroot pigweed plant response rating” value [9, 22] was 9, the “Redroot pigweed plant response rating” value [9, 24] was 10 and the “Rape plant response rating” value [10, 18] was 0. The “Rape plant response rating” value [10, 19] was 0, the “Plant response rating, Rape” value [10, 21] was 4 and the “Plant response rating, Rape” value [10, 17] was 0. The “Rape plant response rating” value [10, 22] was 0, the “Rape plant response rating” value [10, 24] was 4 and the “Soybean plant response rating” value [11, 18] was 0. The “Soybean plant response rating” value [11, 19] was 6, the “Plant response rating, Soybean” value [11, 21] was 8 and the “Plant response rating, Soybean” value [11, 17] was 0. For the same molecule, the “Soybean plant response rating” value [11, 22] was 0, the “Soybean plant response rating” value [11, 24] was 0 and the “Sugarbeets plant response rating” value [12, 18] was 0. The “Sugarbeets plant response rating” value [12, 19] was 0, the “Plant response rating, Sugarbeets” value [12, 21] was 3 and the “Plant response rating, Sugarbeets” value [12, 17] was 0. For the same molecule, the “Sugarbeets plant response rating” value [12, 22] was 0, the “Sugarbeets plant response rating” value [12, 24] was 5 and the “Velvetleaf plant response rating” value [13, 18] was 0. The “Velvetleaf plant response rating” value [13, 19] was 0, the “Plant response rating, Velvetleaf” value [13, 21] was 6 and the “Plant response rating, Velvetleaf” value [13, 17] was 0. The “Velvetleaf plant response rating” value [13, 22] was 0, the “Velvetleaf plant response rating” value [13, 24] was 3 and the “Wheat plant response rating” value [14, 18] was 0. The “Wheat plant response rating” value [14, 19] was 0, the “Plant response rating, Wheat” value [14, 21] was 4 and the “Plant response rating, Wheat” value [14, 17] was 0. The “Wheat plant response rating” value [14, 22] was 0, the “Wheat plant response rating” value [14, 24] was 6 and the “Wild oats plant response rating” value [15, 18] was 0. For the same molecule, the “Wild oats plant response rating” value [15, 19] was 0, the “Plant response rating, Wild oats” value [15, 21] was 3 and the “Plant response rating, Wild oats” value [15, 17] was 4. The “Wild oats plant response rating” value [15, 22] was 4, the “Wild oats plant response rating” value [15, 24] was 5 and the “Nutsedge plant response rating” value [16, 18] was 0. For the same molecule, the “Nutsedge plant response rating” value [16, 19] was 0, the “Plant response rating, Nutsedge” value [16, 17] was 0 and the “Nutsedge plant response rating” value [16, 22] was 0. For the same molecule, the “Nutsedge plant response rating” value [16, 24] was 0.
